# Test system: CT26 cells
# Assay: CT26 colon carcinoma flank tumor model, Gemzar and 2F8
# Format: in vivo, Mice
# Conditions: Kaplan-Meier; Gemzar 80 mg/kg Day 15; 2F8 alone 0.4 mg I.P. Days 15, 16 and 17; FIG. 2
# Procedure: One group of control mice was untreated. The group of mice receiving Gemzar was treated with 80 mg/kg Gemzar on Day 15.
# GraphPad Prism 4 software was used to plot Kaplan-Meir survival curves and to confirm the median survival times for the groups.
structure (smiles),measurement,value
"Nc1ccn([C@@H]2O[C@H](CO)[C@@H](O)C2(F)F)c(=O)n1 [Gemzar, gemcitabine]",median survival,31 days

# — US8591886B2, “Combination therapies employing GITR binding molecules” (GITR, Inc., priority 2007, dated 2013)
